Where a name gives a salt, the structure may show the parent alone. Read-outs that look alike come from different tables or passages of the source. Marks after values point to notes of the source that are not given here.
What was measured:
Female C57B1/6 mice [1] = settings: three weeks
Excerpt: The gastrocnemius muscle from one hindlimb of the animals was removed to induce compensatory hypertrophy in the plantaris and soleus muscles by multiple mechanisms. This model increases the muscle weight under muscle load/training. It simulates the human condition of an average human who is physically active or an athlete to support skeletal muscle function during exercise.
(§1) Female C57B1/6 mice were delivered at a weight of 18-20 g and acclimatized to the facilities for a period of one week. At the beginning of the study the animals were randomized into two groups (10 animals per group).
The animals were anesthetized and the left hindlimb of the animals was fixed. A small incision was made through the skin over the gastrocnemius muscle. The complete gastrocnemius muscle and its tendons were exposed. Both heads of the gastrocnemius muscle were carefully dissected from the underlying intact muscles and care was taken not to rupture nerves and vessels. The skin was closed with a silk and the animals were returned separately into their cages. […] All animals received an analgesic. Animals were treated for three weeks by gavage with trigonelline-hydrochloride at a daily dosage of 300 mg/kg BW and the control group received vehicle.

Female C57B1/6 mice [2] = settings: three weeks tail suspension
Excerpt: To extend our in vitro and in vivo results we were also interested in testing the effects of trigonelline during skeletal muscle unloading (atrophy conditions). Therefore we conducted a second in vivo study were the hindlimbs of the animals were unloaded to induce skeletal muscle atrophy.
Tail suspension leads to skeletal muscle atrophy in the unloaded hindlimbs of the animals.
as §1
Thereafter the groups were placed in special cages and the hindlimbs were unloaded (tail suspension) for a duration of three weeks. All mice were housed separately and had access to feed and water ad libidum. Animals were treated for three weeks by gavage with trigonelline-hydrochloride at a daily dosage of 300 mg/kg/BW and the control group received vehicle.

Female C57B1/6 mice [3] = test system: Female C57B1/6 mice
Experimental: To test the effect of trigonelline in non-trained animals, we performed a maximal endurance test after a treatment period of three weeks.
Female C57B1/6 mice were delivered at a weight of 18-20 g and acclimatized to the facilities for a period of one week. At the beginning of the study the animals were randomized into two groups (10 animals per group). All mice were housed separately and had access to feed and water ad libidum. Animals were treated for three weeks by gavage with trigonelline-hydrochloride at a daily dosage of 300 mg/kg/BW and the control group received vehicle.
For acclimatization, animals were placed on the treadmill for 5 minutes after two weeks. The maximal endurance test was performed two day before the section of the animals.

[4] = test system: C2C12 mouse myoblast cells; settings: 10 μg/ml trigonelline monohydrate, 24 h, vs DMSO control
Experimental: C2C12 cells were seeded on 96 well collagen-I plates (1600 cells/well) in growth medium (Dulbecco's modified Eagle's medium (DMEM) supplemented with 10% FBS, 2 mM L-Glutamine, 1 mM pyruvate, 50 IU/ml penicillin, 50 ug/ml streptavidin) until it reaches 100% confluency, approximately 3 days. […] Final DMSO concentration was standardized to 0.5% in all wells. Cells were cultured at 37° C., with 5% CO2.
Cells were fixed with 3.7% formaldehyde solution (37% formaldehyde diluted in growth medium, sterile filtered before used) for 10 min. at room temperature, and washed twice with 1×DPBS (1× Dulbecco's Phosphate Buffered Saline). After permeabilization with 0.1% TritonX-100 (diluted in 1×DPBS) for 2 min. the samples were blocked with 1×DPBS plus 2% BSA for 1 h. For myocyte labelling, the cells were labelled with 1:20 anti-alpha-myosin heavy chain antibody (MF-20) for 1 hour. The samples were washed with 1×DPBS and fluorescently labelled with secondary antibody (1:250 Alexa 488 IgG antimouse secondary antibody plus 1:2000 Hoechst in 1×DPBS) for 1 h. Finally, the cells were washed twice with 1×DPBS and plates were sealed for imaging on the ArrayScan® HCS Reader.
For image analysis myosin labelled myotubes were quantified on the ArrayScan HCS Reader using BioApplication Morphology Explorer.V2. Myocytes were selected with Object Area larger than 500 and Object Total Intensity greater than 1000.

[5] = 300 mg/kg BW daily by gavage, computer tomography
[6] = 300 mg/kg BW daily by gavage, non-operated leg
[7] = 300 mg/kg/BW daily by gavage, computer tomography
[8] = 300 mg/kg/BW daily by gavage, three weeks, untrained mice

SMILES: C[n+]1cccc(C(=O)[O-])c1 [Trigonelline-hydrochloride, trigonelline-hydrochloride]
- Muscle cross-sectional area - non operated leg (Female C57B1/6 mice [1]; [5]): 32.15 mm^2
- Muscle cross-sectional area - operated leg (Female C57B1/6 mice [1]; [5]): 23.72 mm^2
- Total leg cross-sectional area - non operated leg (Female C57B1/6 mice [1]; [5]): 35.05 mm^2
- Total leg cross-sectional area - operated leg (Female C57B1/6 mice [1]; [5]): 26.79 mm^2
- Gastrocnemius-Plantaris-Soleus muscle weight (whole leg)/body weight (non-operated leg) (Female C57B1/6 mice [1]; [6]): 5.50 mg/g
- M. gastrocnemius wet weight (non-operated leg) (Female C57B1/6 mice [1]; [6]): 99.3 mg
- M. gastrocnemius wet weight/body weight (non-operated leg) (Female C57B1/6 mice [1]; [6]): 4.57 mg/g
- M. plantaris wet weight (non-operated leg) (Female C57B1/6 mice [1]; [6]): 13 mg
- M. plantaris wet weight/body weight (non-operated leg) (Female C57B1/6 mice [1]; [6]): 0.60 mg/g
- M. soleus wet weight (non-operated leg) (Female C57B1/6 mice [1]; [6]): 7.2 mg
- M. soleus wet weight/body weight (non-operated leg) (Female C57B1/6 mice [1]; [6]): 0.33 mg/g
- Gastrocnemius-Plantaris-Soleus muscle weight (whole leg)/body weight (Female C57B1/6 mice [2]; 300 mg/kg/BW daily by gavage): 4.89* mg/g
- M. gastrocnemius wet weight (Female C57B1/6 mice [2]; 300 mg/kg/BW daily by gavage): 86.01* mg
- M. gastrocnemius wet weight/body weight (Female C57B1/6 mice [2]; 300 mg/kg/BW daily by gavage): 4.16* mg/g
- M. plantaris wet weight (Female C57B1/6 mice [2]; 300 mg/kg/BW daily by gavage): 10.53 mg
- M. plantaris wet weight/body weight (Female C57B1/6 mice [2]; 300 mg/kg/BW daily by gavage): 0.51* mg/g
- M. soleus wet weight (Female C57B1/6 mice [2]; 300 mg/kg/BW daily by gavage): 4.62 mg
- M. soleus wet weight/body weight (Female C57B1/6 mice [2]; 300 mg/kg/BW daily by gavage): 0.22 mg/g
- Muscle cross-sectional area (Female C57B1/6 mice [2]; [7]): 27.8 mm^2
- Total leg cross-sectional area (Female C57B1/6 mice [2]; [7]): 30.4 mm^2
- increase of wet weight of the gastrocnemius muscle (relative to the body weight) (Female C57B1/6 mice [2]; trigonelline-hydrochloride 300 mg/kg/BW daily, vs control (FIG. 3), statistically significant): 9%
- Gastrocnemius-Plantaris-Soleus muscle weight (whole leg)/body weight (Female C57B1/6 mice [3]; [8]): 5.41 mg/g
- M. gastrocnemius wet weight (Female C57B1/6 mice [3]; [8]): 100.66 mg
- M. gastrocnemius wet weight/body weight (Female C57B1/6 mice [3]; [8]): 4.57 mg/g
- M. plantaris wet weight (Female C57B1/6 mice [3]; [8]): 12.12 mg
- M. plantaris wet weight/body weight (Female C57B1/6 mice [3]; [8]): 0.55 mg/g
- M. soleus wet weight (Female C57B1/6 mice [3]; [8]): 6.29 mg
- M. soleus wet weight/body weight (Female C57B1/6 mice [3]; [8]): 0.29 mg/g
- Mean running time (Female C57B1/6 mice [3]; 300 mg/kg/BW daily by gavage, three weeks, untrained mice, treadmill): 38.70 min

SMILES: C[n+]1cccc(C(=O)[O-])c1 [Trigonelline]
- increase of wet weight of the non-operated gastrocnemius muscle (relative to the body weight) (Female C57B1/6 mice [1]; trigonelline-hydrochloride 300 mg/kg BW daily, vs control (FIG. 2)): 7%
- wet weight of the gastrocnemius muscle vs control (in words) (Female C57B1/6 mice [3]; three weeks treatment, untrained mice (FIG. 4)): equal in both groups
- increase of differentiation in C2C12 mouse myoblast cells (number of myocytes) [4]: 36%
